Assay results taken from US20170008888A1 (KYORIN PHARMACEUTICAL CO., LTD., priority 2014, published 2017).
Read-outs that look alike come from different tables or passages of the source.

Tests used:
[1] = target: T1, ERK5 (Homo sapiens, UniProt Q13164); test: Probe-based (AX9989 acyl phosphate ATP probe) kinase profiling in Jurkat lysate: ERK5; type: binding; conditions: for IC50: Jurkat lysate; for inhibition at 0.1 µM: screening concentration 0.1 μM; for inhibition at 10 µM: screening concentration 10 μM
T1 construct: screened for activity against several kinases in Jurkat cells; endogenous in cells; host or cells: Jurkat cell lysate
Summary of the method: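 Gel-filtered Jurkat lysate (5 mg/ml, 20 mM MnCl2) preincubated 15 min at room temperature with compound, then labelled with 5 μM AX9989 acyl phosphate ATP probe. Probe-labelled ERK5 active-site peptides quantified by LC/MS after trypsin digestion and streptavidin capture; IC50 calculated from percent inhibition at the screening concentration.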

[2] = test system: AMPKa1 or AMPKa2; test: Probe-based (AX9989) kinase profiling in Jurkat lysate: AMPKa1 or AMPKa2; type: binding
Summary of the method: (§1)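 Jurkat lysate, HEPES pH 7.5 buffer + 20 mM MnCl2; cpd 15 min RT; AX9989 ATP probe 5 μM final, RT. Trypsin digest, streptavidin capture, LC/MS; % inhibition vs vehicle from labeled-peptide signal.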

[3] = target: T2, JAK1 (Homo sapiens, UniProt P23458); test: Probe-based (AX9989) kinase profiling in Jurkat lysate: JAK1; type: binding; conditions: for inhibition at 0.1 µM: screening concentration 0.1 μM; for inhibition at 10 µM: screening concentration 10 μM
T2 construct: screened for activity against several kinases in Jurkat cells; endogenous in cells; host or cells: Jurkat cell lysate
Summary of the method: as §1

[4] = target: T3, ACK (Homo sapiens, UniProt Q07912); test: Probe-based (AX9989) kinase profiling in Jurkat lysate: ACK; type: binding; conditions: for inhibition at 0.1 µM: screening concentration 0.1 μM; for inhibition at 10 µM: screening concentration 10 μM
T3 construct: screened for activity against several kinases in Jurkat cells; endogenous in cells; host or cells: Jurkat cell lysate
Summary of the method: as §1

[5] = test system: human PBMCs; test: Human PBMC TNF-α response to endotoxin (ELISA); type: cell-based; conditions: 0.1 μg/ml LPS 16 h, read-out: EC50 for the inhibition of the human PBMC TNF-α response to endotoxin, ave. ± S.D.
Summary of the method: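 PBMCs at 2e6 cells/ml in RPMI 1640 with 10% charcoal-dextran-treated FBS were pre-treated 1 h at 37 °C with compound (4-point 1:5 dilution from 10 μM). Stimulation with 0.1 μg/ml E. coli 0111:B4 LPS for 16 h; TNF-α measured by ELISA (A450) in 25-fold diluted supernatant.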

[6] = test system: ABL or ARG; test: Probe-based (AX9989) kinase profiling in Jurkat lysate: ABL or ARG; type: binding
Summary of the method: as §1

[7] = target: T4, BRD4 bromodomain domain I [BRD4(1)] (Homo sapiens, UniProt O60885); test: BRD4 bromodomain domain 1 inhibition assay (TR-FRET); type: binding; conditions: screening concentration 10 μM
T4 construct: BRD4 bromodomain domain I [BRD4(1)]; purchased Cayman Chemicals
Summary of the method: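 0.5% DMSO, in triplicate, using Cayman BRD4(1) TR-FRET protocol with slight modification. 670/620 nm ratio normalized to 10 μM JQ1, with DMSO control set as 0% inhibition.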

[8] = calculated from percent inhibition of AX9989 labeling and the screening concentration
[9] = read-out: Kinase inhibition % at indicated screening concentration: ERK5
[10] = read-out: Kinase inhibition % at indicated screening concentration: JAK1
[11] = read-out: Kinase inhibition % at indicated screening concentration: ACK
[12] = screening concentration 1.0 μM, read-out: Kinase inhibition % at indicated screening concentration: ERK5
[13] = screening concentration 1.0 μM, read-out: Kinase inhibition % at indicated screening concentration: JAK1
[14] = screening concentration 1.0 μM, read-out: Kinase inhibition % at indicated screening concentration: ACK
[15] = calculated from percent inhibition and screening concentration, AX9989 probe
[16] = read-out: ERK5 Inhibition % at indicated screening concentration
[17] = read-out: JAK1 Inhibition % at indicated screening concentration
[18] = read-out: ACK Inhibition % at indicated screening concentration

T3 sequence (Q07912 whole entry): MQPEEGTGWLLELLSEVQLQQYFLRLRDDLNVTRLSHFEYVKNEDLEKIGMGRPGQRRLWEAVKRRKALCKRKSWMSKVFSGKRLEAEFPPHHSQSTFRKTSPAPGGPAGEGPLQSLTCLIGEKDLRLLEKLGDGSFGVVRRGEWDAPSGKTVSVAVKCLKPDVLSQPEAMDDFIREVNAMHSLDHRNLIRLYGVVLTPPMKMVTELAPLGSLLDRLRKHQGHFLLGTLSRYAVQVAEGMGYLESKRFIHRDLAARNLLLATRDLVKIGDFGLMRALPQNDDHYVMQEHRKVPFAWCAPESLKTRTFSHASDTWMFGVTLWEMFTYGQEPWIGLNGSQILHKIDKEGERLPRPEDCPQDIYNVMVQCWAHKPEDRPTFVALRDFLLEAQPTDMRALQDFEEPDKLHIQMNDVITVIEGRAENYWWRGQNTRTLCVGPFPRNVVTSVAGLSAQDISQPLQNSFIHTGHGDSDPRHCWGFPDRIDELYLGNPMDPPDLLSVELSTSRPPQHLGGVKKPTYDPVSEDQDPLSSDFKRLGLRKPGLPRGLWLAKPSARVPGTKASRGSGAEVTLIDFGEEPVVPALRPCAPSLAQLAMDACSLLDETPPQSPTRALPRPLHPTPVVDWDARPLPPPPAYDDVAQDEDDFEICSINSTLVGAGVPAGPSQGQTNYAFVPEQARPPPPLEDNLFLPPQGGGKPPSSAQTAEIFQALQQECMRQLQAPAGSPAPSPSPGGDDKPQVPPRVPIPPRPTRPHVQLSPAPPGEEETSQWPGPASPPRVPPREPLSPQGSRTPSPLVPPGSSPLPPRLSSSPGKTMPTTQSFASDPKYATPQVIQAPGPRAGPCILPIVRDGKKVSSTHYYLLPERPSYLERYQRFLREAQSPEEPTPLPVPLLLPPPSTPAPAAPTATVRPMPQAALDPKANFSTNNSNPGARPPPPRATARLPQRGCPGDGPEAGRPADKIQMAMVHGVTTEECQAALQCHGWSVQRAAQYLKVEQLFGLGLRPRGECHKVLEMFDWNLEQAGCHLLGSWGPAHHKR
T1 sequence (Q13164 whole entry): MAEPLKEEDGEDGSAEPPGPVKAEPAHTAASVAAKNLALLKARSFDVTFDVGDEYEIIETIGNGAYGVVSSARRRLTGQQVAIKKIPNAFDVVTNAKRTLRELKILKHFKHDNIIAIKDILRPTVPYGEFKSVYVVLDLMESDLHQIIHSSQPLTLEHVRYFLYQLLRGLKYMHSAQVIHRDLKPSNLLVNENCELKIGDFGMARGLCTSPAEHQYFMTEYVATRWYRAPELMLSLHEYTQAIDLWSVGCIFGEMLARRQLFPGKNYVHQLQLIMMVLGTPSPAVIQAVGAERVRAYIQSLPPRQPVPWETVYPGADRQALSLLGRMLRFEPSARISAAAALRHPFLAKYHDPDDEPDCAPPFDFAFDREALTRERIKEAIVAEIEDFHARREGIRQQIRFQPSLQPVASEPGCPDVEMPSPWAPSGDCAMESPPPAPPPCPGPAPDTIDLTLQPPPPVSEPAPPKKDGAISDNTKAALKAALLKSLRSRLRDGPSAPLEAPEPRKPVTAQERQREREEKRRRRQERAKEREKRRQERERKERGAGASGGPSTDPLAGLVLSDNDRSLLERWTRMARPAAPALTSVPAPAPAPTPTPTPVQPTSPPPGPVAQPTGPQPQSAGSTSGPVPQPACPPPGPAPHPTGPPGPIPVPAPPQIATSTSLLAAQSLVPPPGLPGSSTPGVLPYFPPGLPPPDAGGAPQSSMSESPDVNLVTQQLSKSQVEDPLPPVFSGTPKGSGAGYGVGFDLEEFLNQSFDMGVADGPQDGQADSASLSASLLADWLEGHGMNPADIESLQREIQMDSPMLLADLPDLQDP
T2 sequence (P23458 whole entry): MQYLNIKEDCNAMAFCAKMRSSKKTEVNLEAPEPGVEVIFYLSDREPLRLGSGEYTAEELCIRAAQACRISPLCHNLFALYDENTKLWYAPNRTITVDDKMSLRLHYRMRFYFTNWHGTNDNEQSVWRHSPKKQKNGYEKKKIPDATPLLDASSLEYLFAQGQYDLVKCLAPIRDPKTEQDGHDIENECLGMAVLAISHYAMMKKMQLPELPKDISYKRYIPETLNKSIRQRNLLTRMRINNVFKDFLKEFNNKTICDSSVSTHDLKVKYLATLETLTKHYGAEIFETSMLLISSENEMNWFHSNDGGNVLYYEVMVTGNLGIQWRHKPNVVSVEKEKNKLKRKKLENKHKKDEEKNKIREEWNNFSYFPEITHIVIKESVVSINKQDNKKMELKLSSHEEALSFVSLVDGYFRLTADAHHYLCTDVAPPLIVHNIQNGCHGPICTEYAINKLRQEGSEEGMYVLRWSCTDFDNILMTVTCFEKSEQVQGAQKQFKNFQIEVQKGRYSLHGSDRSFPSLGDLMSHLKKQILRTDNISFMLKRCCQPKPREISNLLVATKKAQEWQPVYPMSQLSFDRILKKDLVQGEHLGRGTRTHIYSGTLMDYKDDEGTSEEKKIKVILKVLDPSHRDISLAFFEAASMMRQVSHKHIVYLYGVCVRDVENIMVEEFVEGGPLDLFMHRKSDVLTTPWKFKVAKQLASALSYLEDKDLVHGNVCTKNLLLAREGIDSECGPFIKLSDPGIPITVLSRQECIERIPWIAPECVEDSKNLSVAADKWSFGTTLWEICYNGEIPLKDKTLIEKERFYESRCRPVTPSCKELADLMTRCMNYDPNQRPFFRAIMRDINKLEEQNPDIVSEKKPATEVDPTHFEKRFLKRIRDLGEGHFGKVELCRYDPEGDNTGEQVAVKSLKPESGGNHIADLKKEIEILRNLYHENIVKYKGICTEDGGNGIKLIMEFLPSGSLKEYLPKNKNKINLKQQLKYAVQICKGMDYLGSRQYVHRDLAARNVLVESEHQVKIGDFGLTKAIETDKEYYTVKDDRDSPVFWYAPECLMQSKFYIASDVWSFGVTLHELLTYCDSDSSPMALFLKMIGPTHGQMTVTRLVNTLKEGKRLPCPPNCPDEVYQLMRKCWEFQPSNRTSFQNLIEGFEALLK

Compound	IC50 [1, 8]	inhibition at 10 µM [7]	inhibition at 1 µM [1, 12]	Kinase inhibition % at indicated screening concentration: AMPKa1 or AMPKa2 ([2]; screening concentration 1.0 μM)	inhibition at 1 µM [3, 13]	inhibition at 1 µM [4, 14]	Kinase inhibition % at indicated screening concentration: ABL or ARG ([6]; screening concentration 1.0 μM)	IC50 [1, 15]	EC50 [5]	also measured
CCOc1cc(C(=O)NCCN(C(C)C)C(C)C)ccc1Nc1cc2c(cn1)N(C)C(=O)c1ccccc1N2C [Compound 55]	≤ 50 nM	70 to 85%							1160 ± 450 nM	inhibition at 0.1 µM [1, 9]: 50 to 75%; Kinase inhibition % at indicated screening concentration: AMPKa1 or AMPKa2 ([2]; screening concentration 0.1 μM): E (E is ≦35%); inhibition at 0.1 µM [3, 10]: ≤ 35%; inhibition at 0.1 µM [4, 11]: ≤ 35%; Kinase inhibition % at indicated screening concentration: ABL or ARG ([6]; screening concentration 0.1 μM): E (E is ≦35%)
CCOc1cc(C(=O)N2CC[C@@H](N3CCCCC3)C2)ccc1Nc1cc2c(cn1)N(C)C(=O)c1occc1N2C [Compound 56]	≤ 50 nM	> 85%							600 ± 190 nM	inhibition at 0.1 µM [1, 9]: > 90%; Kinase inhibition % at indicated screening concentration: AMPKa1 or AMPKa2 ([2]; screening concentration 0.1 μM): E (E is ≦35%); inhibition at 0.1 µM [3, 10]: ≤ 35%; inhibition at 0.1 µM [4, 11]: ≤ 35%; Kinase inhibition % at indicated screening concentration: ABL or ARG ([6]; screening concentration 0.1 μM): E (E is ≦35%)
CCOc1cc(C(=O)N2CCC(NCCF)C2)ccc1Nc1cc2c(cn1)N(C)C(C(F)(F)F)c1ccccc1N2C (stereo not drawn) [Compound T54]								> 500 nM	7140 nM	inhibition at 10 µM [1, 16]: 50 to 75%; AMPKa1 or AMPKa2 Inhibition % at indicated screening concentration ([2]; screening concentration 10 μM): E (E is ≦35%); inhibition at 10 µM [3, 17]: ≤ 35%; inhibition at 10 µM [4, 18]: ≤ 35%; ABL or ARG Inhibition % at indicated screening concentration ([6]; screening concentration 10 μM): E (E is ≦35%)
CCOc1cc(C(=O)N[C@H]2CC[C@@H](O)CC2)ccc1Nc1cc2c(cn1)N(C)C(=O)c1ccccc1N2C [Compound T63]								101 to 500 nM	750 nM	inhibition at 1 µM ([1]; screening concentration 1 μM, read-out: ERK5 Inhibition % at indicated screening concentration): 75 to 90%; AMPKa1 or AMPKa2 Inhibition % at indicated screening concentration ([2]; screening concentration 1 μM): E (E is ≦35%); inhibition at 1 µM ([3]; screening concentration 1 μM, read-out: JAK1 Inhibition % at indicated screening concentration): ≤ 35%; inhibition at 1 µM ([4]; screening concentration 1 μM, read-out: ACK Inhibition % at indicated screening concentration): ≤ 35%; ABL or ARG Inhibition % at indicated screening concentration ([6]; screening concentration 1 μM): E (E is ≦35%)

The next lines start with results.

IC50 [1, 8]	inhibition at 10 µM [7]	inhibition at 1 µM [1, 12]	Kinase inhibition % at indicated screening concentration: AMPKa1 or AMPKa2 ([2]; screening concentration 1.0 μM)	inhibition at 1 µM [3, 13]	inhibition at 1 µM [4, 14]	Kinase inhibition % at indicated screening concentration: ABL or ARG ([6]; screening concentration 1.0 μM)	IC50 [1, 15]	Compound	EC50 [5]	also measured
101 to 500 nM	< 70%	50 to 75%	E (E is ≦35%)	≤ 35%	≤ 35%	E (E is ≦35%)		CCOc1cc(C(=O)NCC2CC2)ccc1Nc1cc2c(cn1)N(C)C(=O)c1ccccc1N2C [Compound 57]	1080 nM	
50 to 100 nM	> 85%	> 90%	E (E is ≦35%)	≤ 35%	≤ 35%	E (E is ≦35%)		CCOc1cc(C(=O)N2CCC(N3CCN(C)CC3)CC2)ccc1Nc1cc2c(cn1)N(C)C(=O)c1ccccc1N2C [Compound 61]	890 ± 290 nM	
≤ 50 nM	70 to 85%	> 90%	E (E is ≦35%)	≤ 35%	≤ 35%	E (E is ≦35%)		CCOc1cc(C(=O)N2CCNCC2)ccc1Nc1cc2c(cn1)N(C)C(=O)c1ccccc1N2C [Compound 62]	720 nM	
50 to 100 nM	70 to 85%	> 90%	E (E is ≦35%)	≤ 35%	≤ 35%	E (E is ≦35%)		CCOc1cc(C(=O)N2CCC(OC)CC2)ccc1Nc1cc2c(cn1)N(C)C(=O)c1ccccc1N2C [Compound 63]	870 nM	
							> 500 nM	CCOc1cc(C(=O)N2CCC(N3CCN(C)CC3)CC2)ccc1Nc1cc2c(cn1)N(C)C(C(F)(F)F)c1ccccc1N2C (stereo not drawn) [Compound T47]	3970 nM	inhibition at 10 µM [1, 16]: 50 to 75%; AMPKa1 or AMPKa2 Inhibition % at indicated screening concentration ([2]; screening concentration 10 μM): E (E is ≦35%); inhibition at 10 µM [3, 17]: ≤ 35%; inhibition at 10 µM [4, 18]: ≤ 35%; ABL or ARG Inhibition % at indicated screening concentration ([6]; screening concentration 10 μM): E (E is ≦35%)
